Reference: ChEMBL document CHEMBL4477215, “Specific Correction of Alternative Survival Motor Neuron 2 Splicing by Small Molecules: Discovery of a Potential Novel Medicine To Treat Spinal Muscular Atrophy” (J Med Chem, 2016)

How the values were obtained:
[1] = system: Mus musculus; assay: Inhibition of mRNA splicing of SMN2 exon 7 in C/C-allele mouse harboring FVB.129(B6) Smn1tm5(Smn1/SMN2)Mrph/J assessed as increase in SMN protein level in brain at 3 mg/kg, po qd for 10 days measured 1 hr after 10th dose by HTRF assay relative to control; assay type: functional; parameters: scale not given: the % may be the effect or the level left
[2] = Mutagenicity in Salmonella typhimurium TA1535 assessed as increase in revertant colonies after 2 days in presence of rat liver S9 fraction by Ames test relative to control; assay type: toxicity; settings: salmonella enterica subsp. enterica serovar typhimurium, s9, 48 h
[3] = system: Mus musculus; assay: Inhibition of mRNA splicing of SMN2 exon 7 in neonatal delta7 mouse harboring FVB.Cg-Tg(SMN2 delta7)4299Ahmb Tg(SMN2)-89Ahmb Smn1tm1Msd/J assessed as increase in SMN protein level in brain administered ip qd dosed from postnatal day 3 to postnatal day 9 measured 1 hr after last dose by HTRF assay; assay type: functional, organism-based
[4] = Volume of distribution at steady state in Cynomolgus monkey at 0.3 mg/kg, iv; assay type: ADME, organism-based, Macaca fascicularis; settings: in vivo, read-out: Vdss
[5] = Mutagenicity in Salmonella typhimurium TA98 assessed as increase in revertant colonies after 2 days in presence of rat liver S9 fraction by Ames test relative to control; assay type: toxicity; settings: salmonella enterica subsp. enterica serovar typhimurium, s9, 48 h
[6] = Oral bioavailability in rat at 10 mg/kg; assay type: ADME, organism-based; settings: in vivo
[7] = system: Mus musculus; assay: Inhibition of mRNA splicing of SMN2 exon 7 in C/C-allele mouse harboring FVB.129(B6) Smn1tm5(Smn1/SMN2)Mrph/J assessed as increase in SMN protein level in quadriceps at 1 mg/kg, po qd for 10 days measured 1 hr after 10th dose by HTRF assay relative to control; assay type: functional; parameters: scale not given: the % may be the effect or the level left
[8] = Half life in rat at 10 mg/kg, po; assay type: ADME, organism-based; settings: in vivo
[9] = organism: Homo sapiens; assay: Inhibition of mRNA splicing of SMN2 exon 7 in GM03813 fibroblasts derived from human SMA type 1 patient after 24 hrs by RT-qPCR analysis
[10] = system: Mus musculus; assay: Inhibition of mRNA splicing of SMN2 exon 7 in neonatal delta7 mouse harboring FVB.Cg-Tg(SMN2 delta7)4299Ahmb Tg(SMN2)-89Ahmb Smn1tm1Msd/J assessed as increase in SMN protein level in brain at 0.3 mg/kg, ip qd administered from postnatal day 3 to postnatal day 9 measured 1 hr after last dose by HTRF assay relative to control; assay type: functional; parameters: scale not given: the % may be the effect or the level left
[11] = system: Mus musculus; assay: Inhibition of mRNA splicing of SMN2 exon 7 in C/C-allele mouse harboring FVB.129(B6) Smn1tm5(Smn1/SMN2)Mrph/J assessed as increase in SMN protein level in quadriceps administered orally qd for 10 days measured 1 hr after 10th dose by HTRF assay; assay type: functional, organism-based
[12] = Mutagenicity in Salmonella typhimurium TA100 assessed as increase in revertant colonies after 2 days in presence of rat liver S9 fraction by Ames test relative to control; assay type: toxicity; settings: salmonella enterica subsp. enterica serovar typhimurium, s9, 48 h
[13] = system: Mus musculus; assay: Inhibition of mRNA splicing of SMN2 exon 7 in neonatal delta7 mouse harboring FVB.Cg-Tg(SMN2 delta7)4299Ahmb Tg(SMN2)-89Ahmb Smn1tm1Msd/J assessed as increase in SMN protein level in quadriceps at 1 mg/kg, ip qd administered from postnatal day 3 to postnatal day 9 measured 1 hr after last dose by HTRF assay relative to control; assay type: functional; parameters: scale not given: the % may be the effect or the level left
[14] = Clearance in rat at 2 mg/kg, iv; assay type: ADME, organism-based; settings: in vivo
[15] = Oral bioavailability in Cynomolgus monkey at 1 mg/kg; assay type: ADME, organism-based, Macaca fascicularis; settings: in vivo
[16] = system: Mus musculus; assay: Inhibition of mRNA splicing of SMN2 exon 7 in C/C-allele mouse harboring FVB.129(B6) Smn1tm5(Smn1/SMN2)Mrph/J assessed as increase in SMN protein level in brain administered orally po qd for 10 days measured 1 hr after 10th dose by HTRF assay; assay type: functional, organism-based
[17] = system: Mus musculus; assay: Inhibition of mRNA splicing of SMN2 exon 7 in C/C-allele mouse harboring FVB.129(B6) Smn1tm5(Smn1/SMN2)Mrph/J assessed as increase in SMN protein level in quadriceps at 3 mg/kg, po qd for 10 days measured 1 hr after 10th dose by HTRF assay relative to control; assay type: functional; parameters: scale not given: the % may be the effect or the level left
[18] = Volume of distribution at steady state in rat at 2 mg/kg, iv; assay type: ADME, organism-based; settings: in vivo, read-out: Vdss
[19] = Clearance in Cynomolgus monkey at 0.3 mg/kg, iv; assay type: ADME, organism-based, Macaca fascicularis; settings: in vivo
[20] = system: Mus musculus; assay: Inhibition of mRNA splicing of SMN2 exon 7 in neonatal delta7 mouse harboring FVB.Cg-Tg(SMN2 delta7)4299Ahmb Tg(SMN2)-89Ahmb Smn1tm1Msd/J assessed as increase in SMN protein level in brain at 1 mg/kg, ip qd administered from postnatal day 3 to postnatal day 9 measured 1 hr after last dose by HTRF assay relative to control; assay type: functional; parameters: scale not given: the % may be the effect or the level left
[21] = system: Mus musculus; assay: Inhibition of mRNA splicing of SMN2 exon 7 in C/C-allele mouse harboring FVB.129(B6) Smn1tm5(Smn1/SMN2)Mrph/J assessed as increase in SMN protein level in brain at 10 mg/kg, po qd for 10 days measured 1 hr after 10th dose by HTRF assay relative to control; assay type: functional; parameters: scale not given: the % may be the effect or the level left
[22] = Fraction unbound in human plasma; assay type: ADME, cell-free
[23] = system: Mus musculus; assay: Inhibition of mRNA splicing of SMN2 exon 7 in C/C-allele mouse harboring FVB.129(B6) Smn1tm5(Smn1/SMN2)Mrph/J assessed as increase in SMN protein level in quadriceps at 10 mg/kg, po qd for 10 days measured 1 hr after 10th dose by HTRF assay relative to control; assay type: functional; parameters: scale not given: the % may be the effect or the level left
[24] = Fraction unbound in rat plasma; assay type: ADME, cell-free
[25] = Half life in Cynomolgus monkey at 1 mg/kg, po; assay type: ADME, organism-based, Macaca fascicularis; settings: in vivo
[26] = biological target: P-gp (ABCB1) (Homo sapiens, UniProt P08183); assay: Substrate activity at human P-gp assessed as efflux ratio by cell based assay; settings: not told
[27] = Octanol-aqueous phosphate buffer distribution coefficient, log D of the compound at pH 7.4 at 100 mM after 24 hrs by LC-MS based shake flask method; assay type: physicochemical
[28] = system: Mus musculus; assay: Inhibition of mRNA splicing of SMN2 exon 7 in neonatal delta7 mouse harboring FVB.Cg-Tg(SMN2 delta7)4299Ahmb Tg(SMN2)-89Ahmb Smn1tm1Msd/J assessed as increase in SMN protein level in quadriceps at 0.3 mg/kg, ip qd administered from postnatal day 3 to postnatal day 9 measured 1 hr after last dose by HTRF assay relative to control; assay type: functional; parameters: scale not given: the % may be the effect or the level left
[29] = organism: Homo sapiens; assay: Inhibition of mRNA splicing of SMN2 exon 7 in fibroblasts derived from human SMA type 1/2/3 patient assessed as increase in SMN protein level after 48 hrs by HTRF assay
[30] = Mutagenicity in Salmonella typhimurium TA97 assessed as increase in revertant colonies after 2 days in presence of rat liver S9 fraction by Ames test relative to control; assay type: toxicity; settings: salmonella enterica subsp. enterica serovar typhimurium, s9, 48 h
[31] = Fraction unbound in Cynomolgus monkey plasma; assay type: ADME, cell-free, Macaca fascicularis

Chain of P-gp (ABCB1) (P08183 whole entry): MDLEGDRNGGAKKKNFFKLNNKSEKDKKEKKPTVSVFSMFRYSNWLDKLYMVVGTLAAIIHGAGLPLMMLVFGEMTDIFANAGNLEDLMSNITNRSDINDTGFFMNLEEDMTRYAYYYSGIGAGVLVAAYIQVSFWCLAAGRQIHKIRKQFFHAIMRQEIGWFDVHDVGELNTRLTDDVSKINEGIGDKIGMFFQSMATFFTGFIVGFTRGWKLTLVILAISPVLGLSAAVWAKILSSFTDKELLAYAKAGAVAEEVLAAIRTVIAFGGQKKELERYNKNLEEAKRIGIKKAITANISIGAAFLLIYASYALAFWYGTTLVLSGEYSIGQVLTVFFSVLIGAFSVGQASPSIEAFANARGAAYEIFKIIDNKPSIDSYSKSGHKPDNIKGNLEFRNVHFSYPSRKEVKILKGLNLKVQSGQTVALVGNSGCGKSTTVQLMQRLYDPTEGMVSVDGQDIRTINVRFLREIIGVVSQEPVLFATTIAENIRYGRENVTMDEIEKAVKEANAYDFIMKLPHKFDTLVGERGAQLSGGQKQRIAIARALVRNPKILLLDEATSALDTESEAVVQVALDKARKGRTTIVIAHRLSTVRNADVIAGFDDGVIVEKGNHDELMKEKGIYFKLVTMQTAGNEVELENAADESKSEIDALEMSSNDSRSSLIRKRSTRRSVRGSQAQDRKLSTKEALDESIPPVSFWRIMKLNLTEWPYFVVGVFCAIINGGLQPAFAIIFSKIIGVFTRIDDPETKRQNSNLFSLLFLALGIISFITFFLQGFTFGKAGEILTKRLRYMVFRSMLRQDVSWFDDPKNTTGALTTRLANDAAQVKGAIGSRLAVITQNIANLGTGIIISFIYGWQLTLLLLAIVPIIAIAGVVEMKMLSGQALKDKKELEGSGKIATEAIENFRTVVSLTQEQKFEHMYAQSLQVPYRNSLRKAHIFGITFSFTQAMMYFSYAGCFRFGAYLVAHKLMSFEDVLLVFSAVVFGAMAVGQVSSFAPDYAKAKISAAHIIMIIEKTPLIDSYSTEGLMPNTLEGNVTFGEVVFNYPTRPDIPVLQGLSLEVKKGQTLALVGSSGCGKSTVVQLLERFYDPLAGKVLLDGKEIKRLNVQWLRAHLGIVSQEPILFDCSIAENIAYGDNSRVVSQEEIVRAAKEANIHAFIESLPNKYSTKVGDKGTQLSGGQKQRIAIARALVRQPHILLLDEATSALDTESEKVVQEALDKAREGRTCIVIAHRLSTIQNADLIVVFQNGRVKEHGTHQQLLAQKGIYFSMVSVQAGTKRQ

Cc1cn2cc(-c3cc(=O)n4cc(N5CCN(C)CC5)ccc4n3)cc(C)c2n1
Activity [1]: 0% | Activity [2]: Non-Toxic | inhibition [3]: Dose-dependent effect | Vd [4]: 4.3 L/kg | Activity [5]: Non-Toxic | bioavailability [6]: 55 to 100% | Activity [7]: 28% | half-life [8]: 6 h | EC1.5 [9]: 7 nM | Activity [10]: 39% | inhibition [11]: Dose-dependent effect | Activity [12]: Non-Toxic | Activity [13]: 115% | clearance [14]: 38 mL/min/kg | bioavailability [15]: 100% | inhibition [16]: Dose-dependent effect | Activity [17]: 70% | Vd [18]: 14 L/kg | clearance [19]: 7.5 mL/min/kg | Activity [20]: 130% | Activity [21]: 39% | fraction unbound [22]: 0.11 | Activity [23]: 133% | fraction unbound [24]: 0.1 | half-life [25]: 8 h | efflux ratio [26]: 2.4 | logD at 24 h [27]: 2.49 | Activity [28]: 31% | EC1.5 [29]: 14 to 55 nM | Activity [30]: Non-Toxic | fraction unbound [31]: 0.08

CCc1nc(C)cn2nc(-c3cc(=O)n4cc(C5CCN(C)CC5)cc(C)c4n3)cc12
Activity [1]: 19% | Activity [2]: Non-Toxic | inhibition [3]: Dose-dependent effect | Vd [4]: 20 L/kg | Activity [5]: Non-Toxic | bioavailability [6]: 83% | Activity [7]: 30% | half-life [8]: 12 h | EC1.5 [9]: 23 nM | Activity [10]: 20% | inhibition [11]: Dose-dependent effect | Activity [12]: Non-Toxic | Activity [13]: 57% | clearance [14]: 18 mL/min/kg | bioavailability [15]: 52% | inhibition [16]: Dose-dependent effect | Activity [17]: 57% | Vd [18]: 20 L/kg | clearance [19]: 5 mL/min/kg | Activity [20]: 55% | Activity [21]: 122% | fraction unbound [22]: 0.13 | Activity [23]: 94% | fraction unbound [24]: 0.17 | half-life [25]: 40 to 60 h | efflux ratio [26]: 2 | logD at 24 h [27]: 2.26 | Activity [28]: 40% | EC1.5 [29]: 87 nM | Activity [30]: Non-Toxic | fraction unbound [31]: 0.16

Cc1cn2cc(-c3cc(=O)n4cc(N5CCN(C)CC5)ccc4n3)cc(F)c2n1
Activity [1]: 60% | Activity [2]: Non-Toxic | inhibition [3]: Dose-dependent effect | Vd [4]: 2.4 L/kg | Activity [5]: Non-Toxic | bioavailability [6]: 100% | Activity [7]: 40% | half-life [8]: 4 h | EC1.5 [9]: 32 nM | Activity [10]: 116% | inhibition [11]: Dose-dependent effect | Activity [12]: Non-Toxic | Activity [13]: 260% | clearance [14]: 61 mL/min/kg | bioavailability [15]: 84% | inhibition [16]: Dose-dependent effect | Activity [17]: 81% | Vd [18]: 5 L/kg | clearance [19]: 9.7 mL/min/kg | Activity [20]: 159% | Activity [21]: 141% | fraction unbound [22]: 0.22 | Activity [23]: 126% | fraction unbound [24]: 0.16 | half-life [25]: 2.9 h | efflux ratio [26]: 1.9 | logD at 24 h [27]: 2.3 | Activity [28]: 189% | EC1.5 [29]: 40 nM | Activity [30]: Non-Toxic | fraction unbound [31]: 0.18
